Converted amounts (≈) assume the structure as drawn.
How the values were obtained:
[1] = tested on: wild type bacterial ribosomes; experiment: in-vitro translation assay, bacterial ribosomes; assay type: biochemical; conditions: Mycobacterium smegmatis ribosomes; read-out: IC50 Bacterial
Excerpt: (§1) The antiribosomal activity of these compounds was investigated with cell-free translation assays using both wild type bacterial ribosomes and hybrid ribosomes carrying eukaryotic decoding A sites enabling the prediction of selectivity.

[2] = tested on: cytosolic ribosome (human chimeric); assay type: biochemical; conditions: for IC50: ribosomes with a human cytosolic decoding site, read-out: IC50 Cytosolic; for Target specificity bacterial vs. Cytosolic: relative target specificity, bacterial vs. human cytosolic
Excerpt: as §1

[3] = tested on: mitochondrial ribosome (human chimeric); assay type: biochemical; conditions: for IC50: ribosomes with a human mitochondrial decoding site, read-out: IC50 Mitoch.
Excerpt: as §1

[4] = tested on: A1555G mutant mitochondrial ribosome (human chimeric); experiment: in-vitro translation assay, human chimeric ribosomes, A1555G mutant mitochondrial decoding site; assay type: biochemical; conditions: human mitochondrial decoding site with A1555G point mutation; read-out: IC50 Mitoch. A1555G
Excerpt: as §1

[5] = tested on: E coli carrying specific resistance determinants; experiment: MIC by broth microdilution, E coli carrying specific resistance determinants; assay type: cell-based; conditions: for MIC AG003 E. coli AAC(3)-II: clinical isolate AG003, AAC(3)-II; for MIC AG036 ANT(4′,4′′): E. coli strain AG036, ANT(4′,4′′); for MIC AG037 APH(3′)-III: E. coli strain AG037, APH(3′)-III; for MIC AG103 armA: E. coli strain AG103, armA; for MIC pH421 APH(3)-I: E. coli strain pH421, APH(3)-I; for MIC pH422 APH(3′)-II: E. coli strain pH422, APH(3′)-II; for MIC pH423 APH(3′)-VI: E. coli strain pH423, APH(3′)-VI; for MIC pH432 ANT(4′): E. coli strain pH432, ANT(4′)
[6] = tested on: rabbit reticulocyte ribosomes; experiment: in-vitro translation assay, rabbit reticulocyte ribosomes; assay type: biochemical; conditions: mammalian cytosolic ribosomes (rabbit)
E coli wild type = experiment: MIC by broth microdilution, wild type E coli; assay type: cell-based; conditions: for MIC AG001 E. coli WT: clinical isolate AG001, WT; for MIC AG055 E. coli WT: clinical isolate AG055, WT; for MIC pH430 WT: E. coli strain pH430, WT
MRSA = experiment: MIC by broth microdilution, MRSA isolates; assay type: cell-based; conditions: for MIC AG038 MRSA: clinical isolate AG038; for MIC AG039 MRSA AAC(6′)-I ANT(4′)-I: clinical isolate AG039, AAC(6′)-I ANT(4′)-I; for MIC AG042 MRSA AAC(6′)-I ANT(4′)-I APH(2′): clinical isolate AG042, AAC(6′)-I ANT(4′)-I APH(2′); for MIC AG044 MRSA: clinical isolate AG044
P aeruginosa = experiment: MIC by broth microdilution, P aeruginosa isolates; assay type: cell-based, Pseudomonas aeruginosa; conditions: for MIC AG031 P. aer. APH(3′)-II: clinical isolate AG031, APH(3′)-II; for MIC AG032 P. aer. APH(3′)-II: clinical isolate AG032, APH(3′)-II

## NC[C@H]1O[C@H](O[C@H]2[C@H](O[C@@H]3O[C@H](CO)[C@@H](O)[C@H]3O)[C@@H](O)[C@H](N)C[C@@H]2N)[C@H](N)C[C@@H]1O [DC047]
[1]
  IC50: 0.1 µM
[2]
  IC50: 293 µM
[3]
  IC50: 325 µM
[4]
  IC50: 119 µM
[5]
  MIC AG003 E. coli AAC(3)-II: 8 µg/mL (≈ 18.2 µM)
[6]
  IC50: 157 µM
E coli wild type
  MIC AG001 E. coli WT: 8 to 16 µg/mL
  MIC AG055 E. coli WT: 8 to 16 µg/mL
MRSA
  MIC AG038 MRSA: 8 µg/mL (≈ 18.2 µM)
  MIC AG039 MRSA AAC(6′)-I ANT(4′)-I: >128 µg/mL
  MIC AG042 MRSA AAC(6′)-I ANT(4′)-I APH(2′): >128 µg/mL
  MIC AG044 MRSA: 8 to 16 µg/mL
P aeruginosa
  MIC AG031 P. aer. APH(3′)-II: 4 µg/mL (≈ 9.12 µM)
  MIC AG032 P. aer. APH(3′)-II: 4 µg/mL (≈ 9.12 µM)

## CC(O)C1OC(OC2C(N)CC(N)C(O)C2OC2OC(CO)C(OC3OC(CN)C(O)C(O)C3N)C2O)C(N)C(O)C1O (stereo not drawn) [DC156]
[1]
  IC50: 0.02 µM
[2]
  Target specificity bacterial vs. Cytosolic: low
  IC50: 2.6 µM
[3]
  IC50: 185 µM
[4]
  IC50: 8.4 µM
[5]
  MIC AG036 ANT(4′,4′′): 32 to 64 µg/mL
  MIC AG037 APH(3′)-III: >32 µg/mL
  MIC AG103 armA: 1 µg/mL (≈ 1.59 µM)
  MIC pH421 APH(3)-I: >32 μg/ml
  MIC pH422 APH(3′)-II: >32 μg/ml
  MIC pH423 APH(3′)-VI: >32 μg/ml
  MIC pH432 ANT(4′): 1 μg/ml
  MIC AG003 E. coli AAC(3)-II: 4 µg/mL (≈ 6.35 µM)
[5]; E. coli strain pH414, AAC(6′)-I
  MIC pH414 AAC(6′)-I: 1 μg/ml
[5]; E. coli strain pH415, AAC(6′)-II
  MIC pH415 AAC(6′)-II: 1 μg/ml
[6]
  IC50: 5.4 µM
E coli wild type
  MIC pH430 WT: 1 μg/ml
  MIC AG001 E. coli WT: 4 to 8 µg/mL
  MIC AG055 E. coli WT: 4 µg/mL (≈ 6.35 µM)
MRSA
  MIC AG038 MRSA: 4 to 8 µg/mL
  MIC AG039 MRSA AAC(6′)-I ANT(4′)-I: >128 µg/mL
  MIC AG042 MRSA AAC(6′)-I ANT(4′)-I APH(2′): >128 µg/mL
  MIC AG044 MRSA: 2 to 4 µg/mL
P aeruginosa
  MIC AG031 P. aer. APH(3′)-II: >32 µg/mL
  MIC AG032 P. aer. APH(3′)-II: >32 µg/mL

## NC[C@H]1O[C@H](O[C@H]2[C@H](O[C@@H]3O[C@H](CNC=O)[C@@H](O)[C@H]3O)[C@@H](O)[C@H](N)C[C@@H]2N)[C@H](N)[C@@H](O)[C@@H]1O [DC130]
[1]
  IC50: 0.24 µM
[2]
  IC50: 359 µM
[3]
  IC50: 364 µM
[4]
  IC50: 190 µM
[5]
  MIC AG003 E. coli AAC(3)-II: 32 µg/mL (≈ 66.5 µM)
[6]
  IC50: 152 µM
E coli wild type
  MIC AG001 E. coli WT: 32 µg/mL (≈ 66.5 µM)
  MIC AG055 E. coli WT: 32 µg/mL (≈ 66.5 µM)
MRSA
  MIC AG038 MRSA: 64 µg/mL (≈ 133 µM)
  MIC AG039 MRSA AAC(6′)-I ANT(4′)-I: >128 µg/mL
  MIC AG042 MRSA AAC(6′)-I ANT(4′)-I APH(2′): >128 µg/mL
  MIC AG044 MRSA: 128 µg/mL (≈ 266 µM)
P aeruginosa
  MIC AG031 P. aer. APH(3′)-II: >128 µg/mL
  MIC AG032 P. aer. APH(3′)-II: >128 µg/mL

## CCNC1C(OC2C(N)CC(N)C(O)C2OC2OC(CO)C(OC3OC(CN)C(O)C(O)C3N)C2O)OC(CN)C(O)C1O (stereo not drawn) [DC-172]
[1]
  IC50: 0.01 µM
[2]
  IC50: 43 µM
[3]
  IC50: 11 µM
[4]
  IC50: 1.6 µM
[5]
  MIC AG003 E. coli AAC(3)-II: 1 µg/mL (≈ 1.56 µM)
[6]
  IC50: 45 µM
E coli wild type
  MIC AG001 E. coli WT: 1 to 2 µg/mL
  MIC AG055 E. coli WT: 1 µg/mL (≈ 1.56 µM)
MRSA
  MIC AG038 MRSA: 0.5 µg/mL (≈ 0.778 µM)
  MIC AG039 MRSA AAC(6′)-I ANT(4′)-I: >32 µg/mL
  MIC AG042 MRSA AAC(6′)-I ANT(4′)-I APH(2′): >32 µg/mL
  MIC AG044 MRSA: 1 µg/mL (≈ 1.56 µM)
P aeruginosa
  MIC AG031 P. aer. APH(3′)-II: >64 µg/mL
  MIC AG032 P. aer. APH(3′)-II: >64 µg/mL

## CCCC(O)C1OC(OC2C(N)CC(N)C(O)C2OC2OC(CO)C(OC3OC(CN)C(O)C(O)C3N)C2O)C(N)C(O)C1O (stereo not drawn) [DC143]
[1]
  IC50: 0.16 µM
[2]
  IC50: 259 µM
[3]
  IC50: 328 µM
[4]
  IC50: 93 µM
[5]
  MIC AG036 ANT(4′,4′′): 64 µg/mL (≈ 97.3 µM)
  MIC AG037 APH(3′)-III: >128 µg/mL
  MIC AG103 armA: 16 to 32 µg/mL
  MIC pH421 APH(3)-I: >128 μg/ml
  MIC pH422 APH(3′)-II: >128 μg/ml
  MIC pH423 APH(3′)-VI: 32-64 μg/ml
  MIC pH432 ANT(4′): 4 μg/ml
  MIC AG003 E. coli AAC(3)-II: 32 µg/mL (≈ 48.7 µM)
[6]
  IC50: 66 µM
E coli wild type
  MIC pH430 WT: 4 μg/ml
  MIC AG001 E. coli WT: 32 µg/mL (≈ 48.7 µM)
  MIC AG055 E. coli WT: 32 µg/mL (≈ 48.7 µM)
MRSA
  MIC AG038 MRSA: 32 to 64 µg/mL
  MIC AG039 MRSA AAC(6′)-I ANT(4′)-I: >64 µg/mL
  MIC AG042 MRSA AAC(6′)-I ANT(4′)-I APH(2′): >64 µg/mL
  MIC AG044 MRSA: 16 µg/mL (≈ 24.3 µM)
P aeruginosa
  MIC AG031 P. aer. APH(3′)-II: >64 µg/mL
  MIC AG032 P. aer. APH(3′)-II: >64 µg/mL

## CC1CC(N)C2OC(OC3C(N)CC(N)C(O)C3OC3OC(CO)C(OC4OC(CN)C(O)C(O)C4N)C3O)C(N)C(O)C2O1 (stereo not drawn) [DC150]
[1]
  IC50: 0.48 µM
[2]
  Target specificity bacterial vs. Cytosolic: low
  IC50: 12 µM
[3]; relative target specificity, bacterial vs. human mitochondrial
  Target specificity bacterial vs. Mitochondrial: low
[3]
  IC50: 4.1 µM
[4]
  IC50: 2.3 µM
[5]
  MIC AG003 E. coli AAC(3)-II: >128 µg/mL
[6]
  IC50: 13 µM
E coli wild type
  MIC pH430 WT: 64-128 μg/ml
  MIC AG001 E. coli WT: >128 µg/mL
  MIC AG055 E. coli WT: >128 µg/mL
MRSA
  MIC AG038 MRSA: 128 µg/mL (≈ 196 µM)
  MIC AG039 MRSA AAC(6′)-I ANT(4′)-I: 128 µg/mL (≈ 196 µM)
  MIC AG042 MRSA AAC(6′)-I ANT(4′)-I APH(2′): 128 µg/mL (≈ 196 µM)
  MIC AG044 MRSA: 128 µg/mL (≈ 196 µM)
P aeruginosa
  MIC AG031 P. aer. APH(3′)-II: >128 µg/mL
  MIC AG032 P. aer. APH(3′)-II: >128 µg/mL

## NCC1OC(OC2C(CNC=O)OC(OC3C(O)C(N)CC(N)C3OC3OC(CO)C(O)C(O)C3N)C2O)C(N)C(O)C1O (stereo not drawn) [DC137]
[1]
  IC50: 0.04 µM
[2]
  IC50: 90 µM
[3]
  IC50: 144 µM
[4]
  IC50: 30 µM
[5]
  MIC AG003 E. coli AAC(3)-II: 2 to 4 µg/mL
[6]
  IC50: 29 µM
E coli wild type
  MIC AG001 E. coli WT: 4 µg/mL (≈ 6.22 µM)
  MIC AG055 E. coli WT: 2 to 4 µg/mL
MRSA
  MIC AG038 MRSA: 4 µg/mL (≈ 6.22 µM)
  MIC AG039 MRSA AAC(6′)-I ANT(4′)-I: >128 µg/mL
  MIC AG042 MRSA AAC(6′)-I ANT(4′)-I APH(2′): >128 µg/mL
  MIC AG044 MRSA: 2 to 4 µg/mL
P aeruginosa
  MIC AG031 P. aer. APH(3′)-II: ≥128 µg/mL
  MIC AG032 P. aer. APH(3′)-II: 128 µg/mL (≈ 199 µM)

From patent US11466044B2 (WAYNE STATE UNIVERSITY, priority 2017, dated 2022)
